Assay results from US20170007610A1, “NOVEL HETEROBICYCLIC COMPOUNDS AS KAPPA OPIOID AGONISTS” (priority 2014, published 2017).

How the values were obtained:
[1] = target: T1, kappa opioid receptor (Mus musculus, UniProt P33534); assay: Ex-vivo KOR agonistic activity, electrically stimulated mouse vas deferens (MVD) model
T1 construct: from tissue; host or cells: mouse vas deferens (male Swiss Albino mice)
Procedure: a) Ex-Vivo KOR Agonistic Activity Testing, Using Electrically Stimulated Mouse Vas Deferens (MVD) Model:
Ex-vivo, the kappa opioid receptor agonistic activity of test compounds were tested on the electrically stimulated mouse vas deferens (MVD) preparations (Henderson et al., Br. J. Pharmacol., 46, 764-766, 1972; Portoghese et al., Life Sci. 36, 801-805, 1985) and IC50 were determined. In general, vas deferentia were taken from male Swiss Albino mice (30-40 g) and suspended in 8 ml organ baths, at 31° C., containing modified Krebs-Henseleit solution, without magnesium sulphate. Each vas deferens was equilibrated for 45 min at 2.6 mN tension and then stimulated at supramaximal voltage with five 1 ms pulses, at a frequency of 0.1 Hz. Concentration-response curves were determined by cumulative dosing. Inhibitory Concentration, 50% (IC50) values were determined by Sigmoidal dose-response (variable slope) equation, using Prizm v 6.01. The kappa opioid receptor specificity was determined by rightward shift in concentration-response curves in presence of 1 nM norbinaltorphimine (norBNI), a selective kappa opioid receptor antagonist.

[2] = target: T2, kappa opioid receptor (Homo sapiens, UniProt P41145); assay: Invitro KOR agonistic activity, cAMP based functional assay; type: cell-based
T2 construct: grown in complete Ham's F-12 medium
T2 sequence (P41145 whole entry): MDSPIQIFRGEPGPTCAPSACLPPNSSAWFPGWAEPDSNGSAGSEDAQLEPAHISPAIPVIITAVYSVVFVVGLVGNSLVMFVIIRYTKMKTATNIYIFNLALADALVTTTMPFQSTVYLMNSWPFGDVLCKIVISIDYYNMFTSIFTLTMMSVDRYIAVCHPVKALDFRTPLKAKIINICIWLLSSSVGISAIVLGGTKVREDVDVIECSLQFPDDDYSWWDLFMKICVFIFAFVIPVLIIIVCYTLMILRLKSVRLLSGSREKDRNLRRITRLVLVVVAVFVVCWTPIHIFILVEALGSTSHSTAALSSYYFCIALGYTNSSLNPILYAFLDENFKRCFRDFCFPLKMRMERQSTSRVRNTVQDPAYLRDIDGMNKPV

T1 sequence (P33534 whole entry): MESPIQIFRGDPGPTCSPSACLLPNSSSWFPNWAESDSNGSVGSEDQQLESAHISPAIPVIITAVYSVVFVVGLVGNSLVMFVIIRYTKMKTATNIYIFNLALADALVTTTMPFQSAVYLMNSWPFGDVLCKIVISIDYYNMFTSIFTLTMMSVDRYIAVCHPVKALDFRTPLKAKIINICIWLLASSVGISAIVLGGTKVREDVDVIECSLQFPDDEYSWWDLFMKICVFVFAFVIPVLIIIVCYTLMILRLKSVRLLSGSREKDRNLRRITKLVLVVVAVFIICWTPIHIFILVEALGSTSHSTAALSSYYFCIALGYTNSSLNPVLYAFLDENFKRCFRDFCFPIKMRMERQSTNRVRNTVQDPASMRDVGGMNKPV

SMILES | IC50 [1] [nM] | EC50 [2] [nM]
CC(=O)Nc1cccc([C@@H](CN2CC[C@H](O)C2)N(C)C(=O)COc2ccc(NS(C)(=O)=O)c3ncccc23)c1 [Compound 45, N-((S)-1-(3-acetamidophenyl)-2-((S)-3-hydroxypyrrolidin-1-yl)ethyl)-N-methyl-2-((8-(methylsulfonamido)quinolin-5-yl)oxy) acetamide] | 14 | 0.066
CN(C)c1cccc([C@@H](CN2CC[C@H](O)C2)N(C)C(=O)COc2ccc(NS(C)(=O)=O)c3ncccc23)c1 [Compound 47, N-((S)-1-(3-dimethylaminophenyl)-2-((S)-3-hydroxypyrrolidin-1-yl)ethyl)-N-methyl-2-((8-(methylsulfonamido)quinolin-5-yl)oxy) acetamide] | 88 | 0.691
CN(C(=O)COc1ccc2ncccc2c1)[C@H](CN1CC[C@H](O)C1)c1ccccc1 [Compound 19, N-((S)-2-((S)-3-hydroxypyrrolidin-1-yl)-1-phenylethyl)-N-methyl-2-(quinolin-6-yloxy)acetamide] | 135 | 1.31
CN(C(=O)COc1ccc(NS(C)(=O)=O)c2ncccc12)[C@H](CN1CC[C@H](O)C1)c1cccc(F)c1 [Compound 52, N-((S)-1-(3-fluorophenyl)-2-((S)-3-hydroxypyrrolidin-1-yl)ethyl)-N-methyl-2-((8-(methylsulfonamido)quinolin-5-yl)oxy) acetamide] | 21 | 0.18
CN(C(=O)COc1nccc2ccccc12)[C@H](CN1CC[C@H](O)C1)c1ccccc1 [Compound 9, N-((S)-2-((S)-3-hydroxypyrrolidin-1-yl)-1-phenylethyl)-2-(isoquinolin-1-yloxy)-N-methylacetamide] | 13 | 0.012
CN(C(=O)COc1ccc(NS(=O)(=O)N(C)C)c2ncccc12)[C@H](CN1CC[C@H](O)C1)c1ccccc1 [Compound 24, 2-((8-((N,N-dimethylsulfamoyl)amino)quinolin-5-yl)oxy)-N-((S)-2-((S)-3-hydroxypyrrolidin-1-yl)-1-phenylethyl)-N-methyl-acetamide] | 5 | 0.055
COc1cccc([C@@H](CN2CC[C@H](O)C2)N(C)C(=O)COc2ccc(NS(C)(=O)=O)c3ncccc23)c1 [Compound 49, N-((S)-2-((S)-3-hydroxypyrrolidin-1-yl)-1-(3-methoxyphenyl)ethyl)-N-methyl-2-((8-(methylsulfonamido)quinolin-5-yl)oxy) acetamide] | 1.9 | 0.032
CN(C(=O)COc1ccc2ccoc2c1)[C@H](CN1CC[C@H](O)C1)c1ccccc1 [Compound 17, 2-(benzofuran-6-yloxy)-N-((S)-2-((S)-3-hydroxypyrrolidin-1-yl)-1-phenylethyl)-N-methylacetamide] | 7 | 0.012
CN(C(=O)COc1ccc([N+](=O)[O-])c2cccnc12)[C@H](CN1CC[C@H](O)C1)c1ccccc1 [Compound 7, N-((S)-2-((S)-3-hydroxypyrrolidin-1-yl)-1-phenylethyl)-N-methyl-2-((5-nitroquinolin-8-yl)oxy)acetamide] | 0.84 | 0.015
CN(C(=O)COc1ncc2ccc(Br)cc2n1)[C@H](CN1CC[C@H](O)C1)c1ccccc1 [Compound 28, 2-((7-bromoquinazolin-2-yl)oxy)-N-((S)-2-((S)-3-hydroxypyrrolidin-1-yl)-1-phenylethyl)-N-methylacetamide] | 1490 | 1.42
CN(C(=O)COc1ccc(NC(=O)CO)c2ncccc12)[C@H](CN1CC[C@H](O)C1)c1ccccc1 [Compound 34, 2-((8-(2-hydroxyacetamido)quinolin-5-yl)oxy)-N-((S)-2-((S)-3-hydroxypyrrolidin-1-yl)-1-phenylethyl)-N-methylacetamide] | 258 | 0.49
CCOC(=O)COc1cccc([C@@H](CN2CC[C@H](O)C2)N(C)C(=O)COc2ccc(NS(C)(=O)=O)c3ncccc23)c1 [Compound 50] | 221 | 0.001
